Target: T1, human GPR17 receptor (Homo sapiens, UniProt Q13304)
T1 construct: host or cells: HEK-293
Experiment: Calcium mobilization functional assay (Fluo-8, FLIPR TETRA) in HEK-293 hGPR17 (Gα-q assay)
Format: cell-based
Settings: antagonism of MDL29,951 (~EC80) induced Ca2+ signal; cell line (HEK-293 hGPR17 or HEK-293 Suchi5 hGPR17) not given
Procedure, shortened: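 Fluo-8-loaded HEK-293 hGPR17 cells (60 min dye loading, room temperature) were preincubated with compound for twenty minutes, then challenged with agonist MDL29,951 at ~EC80, 500 nM. Intracellular calcium release via Gα-q was recorded as FLIPR fluorescence for a further 2 minutes; compounds tested in duplicate.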

T1 sequence (Q13304 whole entry): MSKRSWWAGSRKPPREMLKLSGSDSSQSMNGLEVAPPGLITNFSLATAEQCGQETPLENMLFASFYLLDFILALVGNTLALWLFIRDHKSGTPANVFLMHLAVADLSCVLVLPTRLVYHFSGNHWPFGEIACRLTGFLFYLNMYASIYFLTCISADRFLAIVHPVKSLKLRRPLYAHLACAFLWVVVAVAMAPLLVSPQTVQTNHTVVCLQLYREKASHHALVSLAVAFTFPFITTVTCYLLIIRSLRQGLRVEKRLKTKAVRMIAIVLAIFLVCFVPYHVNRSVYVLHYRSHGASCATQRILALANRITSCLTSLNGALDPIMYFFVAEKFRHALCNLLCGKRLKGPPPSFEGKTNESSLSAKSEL

Row | IC50 | SMILES
1 | < 0.5 µM | N#Cc1cc(F)c(NS(=O)(=O)c2c[nH]c(-c3cccc(Cl)n3)c2)cc1F [Cpd 575, 5-(6-chloropyridin-2-yl)-N-(4-cyano-2,5-difluorophenyl)-1H-pyrrole-3-sulfonamide]
2 | 0.5 to 5 µM | N#CCOc1cc(F)c(NS(=O)(=O)c2c[nH]c(-c3ccccc3)c2)cc1Cl [Cpd 576, N-[5-chloro-4-(cyanomethoxy)-2-fluorophenyl]-5-phenyl-1H-pyrrole-3-sulfonamide]
3 | < 0.5 µM | Cc1cc(F)cnc1-c1cc(S(=O)(=O)Nc2ccc(C#N)cc2F)c[nH]1 [Cpd 577, N-(4-cyano-2-fluorophenyl)-5-(5-fluoro-3-methylpyridin-2-yl)-1H-pyrrole-3-sulfonamide]
4 | < 0.5 µM | N#CCOc1cc(F)c(NS(=O)(=O)c2c[nH]c(C3CCC3)c2)cc1F [Cpd 578, N-[4-(cyanomethoxy)-2,5-difluorophenyl]-5-cyclobutyl-1H-pyrrole-3-sulfonamide]
5 | 0.5 to 5 µM | O=S(=O)(Nc1cc(F)c(C(F)(F)F)cc1F)c1c[nH]c(-c2ncccc2C(F)F)c1 [Cpd 580, 5-[3-(difluoromethyl)pyridin-2-yl]-N-[2,5-difluoro-4-(trifluoromethyl)phenyl]-1H-pyrrole-3-sulfonamide]
6 | 5 to 50 µM | N#Cc1ccc(NS(=O)(=O)c2c[nH]c(-c3ncccc3C(F)F)c2)c(F)c1 [Cpd 581, N-(4-cyano-2-fluorophenyl)-5-[3-(difluoromethyl)pyridin-2-yl]-1H-pyrrole-3-sulfonamide]
7 | 0.5 to 5 µM | Cc1noc(C)c1-c1cc(S(=O)(=O)Nc2cc(F)c(C(F)(F)F)cc2F)c[nH]1 [Cpd 582, N-[2,5-difluoro-4-(trifluoromethyl)phenyl]-5-(3,5-dimethyl-1,2-oxazol-4-yl)-1H-pyrrole-3-sulfonamide]
8 | < 0.5 µM | N#Cc1cc(F)c(NS(=O)(=O)c2c[nH]cc2Cc2ccc(F)cc2)cc1F [Cpd 584, N-(4-cyano-2,5-difluorophenyl)-4-[(4-fluorophenyl)methyl]-1H-pyrrole-3-sulfonamide]
9 | < 0.5 µM | N#Cc1cc(F)c(NS(=O)(=O)c2c[nH]cc2Cc2cccc(F)c2)cc1F [Cpd 585, N-(4-cyano-2,5-difluorophenyl)-4-[(3-fluorophenyl)methyl]-1H-pyrrole-3-sulfonamide]
10 | 0.5 to 5 µM | N#Cc1cc(F)c(NS(=O)(=O)c2c[nH]cc2Cc2cccc(C3CC3)c2)cc1F [Cpd 586, N-(4-cyano-2,5-difluorophenyl)-4-[(3-cyclopropylphenyl)methyl]-1H-pyrrole-3-sulfonamide]
11 | 0.5 to 5 µM | N#Cc1ccc(NS(=O)(=O)c2c[nH]c(-c3ccccc3OC(F)(F)F)c2)c(F)c1 [Cpd 587, N-(4-cyano-2-fluorophenyl)-5-[2-(trifluoromethoxy)phenyl]-1H-pyrrole-3-sulfonamide]
12 | < 0.5 µM | N#Cc1cc(F)c(NS(=O)(=O)c2c[nH]c(-c3ccccc3OC(F)(F)F)c2)cc1F [Cpd 588, N-(4-cyano-2,5-difluorophenyl)-5-[2-(trifluoromethoxy)phenyl]-1H-pyrrole-3-sulfonamide]
13 | 0.5 to 5 µM | O=S(=O)(Nc1cc(F)c(C(F)(F)F)cc1F)c1c[nH]c(-c2ccccc2OC(F)(F)F)c1 [Cpd 589, N-[2,5-difluoro-4-(trifluoromethyl)phenyl]-5-[2-(trifluoromethoxy)phenyl]-1H-pyrrole-3-sulfonamide]
14 | 5 to 50 µM | O=S(=O)(Nc1cc(F)c(C(F)(F)F)cc1F)c1c[nH]cc1Cc1cccc(C2CC2)c1 [Cpd 590, 4-[(3-cyclopropylphenyl)methyl]-N-[2,5-difluoro-4-(trifluoromethyl)phenyl]-1H-pyrrole-3-sulfonamide]
15 | 5 to 50 µM | O=S(=O)(Nc1cnsc1)c1c[nH]c(-c2ccccc2)c1 [Cpd 591, 5-phenyl-N-(1,2-thiazol-4-yl)-1H-pyrrole-3-sulfonamide]
16 | 0.5 to 5 µM | N#Cc1ccc(NS(=O)(=O)c2c[nH]c(-c3ncccc3CF)c2)c(F)c1 [Cpd 592, N-(4-cyano-2-fluorophenyl)-5-[3-(fluoromethyl)pyridin-2-yl]-1H-pyrrole-3-sulfonamide]
17 | 0.5 to 5 µM | O=S(=O)(Nc1cc(F)cs1)c1c[nH]c(-c2ccccc2)c1 [Cpd 593, N-(4-fluorothiophene-2-yl)-5-phenyl-1H-pyrrole-3-sulfonamide]
18 | < 0.5 µM | N#Cc1ccc(NS(=O)(=O)c2c[nH]c(-c3cscc3F)c2)c(F)c1 [Cpd 594, N-(4-cyano-2-fluorophenyl)-5-(4-fluorothiophene-3-yl)-1H-pyrrole-3-sulfonamide]
19 | 0.5 to 5 µM | Cc1nc(-c2cc(S(=O)(=O)Nc3cc(F)c(C(F)(F)F)cc3F)c[nH]2)cs1 [Cpd 595, N-[2,5-difluoro-4-(trifluoromethyl)phenyl]-5-(2-methyl-1,3-thiazol-4-yl)-1H-pyrrole-3-sulfonamide]
20 | 0.5 to 5 µM | N#Cc1cc(F)c(NS(=O)(=O)c2c[nH]c(-c3ccc(F)c(Cl)c3)c2)cc1F [Cpd 596, 5-(3-chloro-4-fluorophenyl)-N-(4-cyano-2,5-difluorophenyl)-1H-pyrrole-3-sulfonamide]

Row | IC50 | SMILES
21 | < 0.5 µM | O=S(=O)(Nc1cc(F)c(C(F)(F)F)cc1F)c1c[nH]c(-c2cncs2)c1 [Cpd 597, N-[2,5-difluoro-4-(trifluoromethyl)phenyl]-5-(1,3-thiazol-5-yl)-1H-pyrrole-3-sulfonamide]
22 | < 0.5 µM | N#Cc1cc(F)c(NS(=O)(=O)c2c[nH]c(-c3nccs3)c2)cc1F [Cpd 598, N-(4-cyano-2,5-difluorophenyl)-5-(1,3-thiazol-2-yl)-1H-pyrrole-3-sulfonamide]
23 | < 0.5 µM | Cc1csc(-c2cc(S(=O)(=O)Nc3cc(F)c(C(F)(F)F)cc3F)c[nH]2)n1 [Cpd 599, N-[2,5-difluoro-4-(trifluoromethyl)phenyl]-5-(4-methyl-1,3-thiazol-2-yl)-1H-pyrrole-3-sulfonamide]
24 | 5 to 50 µM | Cn1cccc(-c2cc(S(=O)(=O)Nc3ccc(C#N)cc3F)c[nH]2)c1=O [Cpd 600, N-(4-cyano-2-fluorophenyl)-5-(1-methyl-2-oxopyridin-3-yl)-1H-pyrrole-3-sulfonamide]
25 | 0.5 to 5 µM | N#Cc1cc(F)c(NS(=O)(=O)c2c[nH]c(-c3ccccc3)c2)s1 [Cpd 601, N-(5-cyano-3-fluorothiophen-2-yl)-5-phenyl-1H-pyrrole-3-sulfonamide]
26 | < 0.5 µM | N#Cc1ccc(NS(=O)(=O)c2c[nH]c(-c3sccc3F)c2)c(F)c1 [Cpd 602, N-(4-cyano-2-fluorophenyl)-5-(3-fluorothiophen-2-yl)-1H-pyrrole-3-sulfonamide]
27 | 5 to 50 µM | CC(C)n1cccc(-c2cc(S(=O)(=O)Nc3ccc(C#N)cc3F)c[nH]2)c1=O [Cpd 603, N-(4-cyano-2-fluorophenyl)-5-(2-oxo-1-propan-2-ylpyridin-3-yl)-1H-pyrrole-3-sulfonamide]
28 | 0.5 to 5 µM | N#Cc1ccc(NS(=O)(=O)c2c[nH]c(-c3cccn(C(F)F)c3=O)c2)c(F)c1 [Cpd 604, N-(4-cyano-2-fluorophenyl)-5-[1-(difluoromethyl)-2-oxopyridin-3-yl]-1H-pyrrole-3-sulfonamide]
29 | 0.5 to 5 µM | N#Cc1cc(F)c(NS(=O)(=O)c2c[nH]cc2Cc2cc(F)cc(Cl)c2)cc1F [Cpd 605, 4-[(3-chloro-5-fluorophenyl)methyl]-N-(4-cyano-2,5-difluorophenyl)-1H-pyrrole-3-sulfonamide]
30 | 0.5 to 5 µM | Cc1cnc(-c2cc(S(=O)(=O)Nc3cc(F)c(C(F)(F)F)cc3F)c[nH]2)s1 [Cpd 606, N-[2,5-difluoro-4-(trifluoromethyl)phenyl]-5-(5-methyl-1,3-thiazol-2-yl)-1H-pyrrole-3-sulfonamide]
31 | 5 to 50 µM | N#Cc1cnc(-c2cc(S(=O)(=O)Nc3cc(F)c(C(F)(F)F)cc3F)c[nH]2)s1 [Cpd 607, 5-(5-cyano-1,3-thiazol-2-yl)-N-[2,5-difluoro-4-(trifluoromethyl)phenyl]-1H-pyrrole-3-sulfonamide]
32 | 5 to 50 µM | N#Cc1ccc(NS(=O)(=O)c2c[nH]cc2Cc2ccc3c(c2)OCC3)c(F)c1 [Cpd 608, N-(4-cyano-2-fluorophenyl)-4-(2,3-dihydro-1-benzofuran-6-ylmethyl)-1H-pyrrole-3-sulfonamide]
33 | 0.5 to 5 µM | N#Cc1ccc(NS(=O)(=O)c2c[nH]c(F)c2Cc2ccccc2)c(F)c1 [Cpd 609, 4-benzyl-N-(4-cyano-2-fluorophenyl)-5-fluoro-1H-pyrrole-3-sulfonamide]
34 | < 0.5 µM | N#Cc1ccc(NS(=O)(=O)c2c[nH]c(-c3nccs3)c2)c(F)c1 [Cpd 610, N-(4-cyano-2-fluorophenyl)-5-(1,3-thiazol-2-yl)-1H-pyrrole-3-sulfonamide]
35 | 0.5 to 5 µM | O=S(=O)(Nc1cc(F)c(OC(F)F)cc1F)c1c[nH]c(-c2nnco2)c1 [Cpd 611, N-[4-(difluoromethoxy)-2,5-difluorophenyl]-5-(1,3,4-oxadiazol-2-yl)-1H-pyrrole-3-sulfonamide]
36 | < 0.5 µM | [2H]c1ccc(-c2cc(S(=O)(=O)Nc3ccc(C#N)cc3F)c[nH]2)cc1 [Cpd 612, N-(4-cyano-2-fluorophenyl)-5-(4-deuteriophenyl)-1H-pyrrole-3-sulfonamide]
37 | 0.5 to 5 µM | O=S(=O)(Nc1cc(F)c(OC(F)F)cc1F)c1c[nH]c(-c2ncns2)c1 [Cpd 613, N-[4-(difluoromethoxy)-2,5-difluorophenyl]-5-(1,2,4-thiadiazol-5-yl)-1H-pyrrole-3-sulfonamide]
38 | 5 to 50 µM | N#Cc1ccc(NS(=O)(=O)c2c[nH]c(-c3cccn(CC(F)(F)F)c3=O)c2)c(F)c1 [Cpd 614, N-(4-cyano-2-fluorophenyl)-5-[2-oxo-1-(2,2,2-trifluoroethyl)pyridin-3-yl]-1H-pyrrole-3-sulfonamide]
39 | < 0.5 µM | N#Cc1cc(F)c(NS(=O)(=O)c2c[nH]c(-c3cccc4ccoc34)c2)cc1F [Cpd 615, 5-(1-benzofuran-7-yl)-N-(4-cyano-2,5-difluorophenyl)-1H-pyrrole-3-sulfonamide]
40 | 0.5 to 5 µM | N#Cc1ccc(NS(=O)(=O)c2c[nH]cc2CC2CCCCC2)c(F)c1 [Cpd 616, N-(4-cyano-2-fluorophenyl)-4-(cyclohexylmethyl)-1H-pyrrole-3-sulfonamide]
